Measurements reported in patent USRE49128E1, “Hydroxyl purine compounds and applications thereof” (GUANGDONG RAYNOVENT BIOTECH CO., LTD., priority 2014, dated 2022).

How the values were obtained:
[1] = molecular target: T1, recombinant full-length PDE2A protein (Homo sapiens, UniProt O00408); assay: Evaluation of PDE2 phosphodiesterase inhibitory activity in vitro (fluorescence polarization, Transcreener AMP2/GMP2); format: biochemical; settings: IC50 classes; substrate 1 μM cGMP; room temperature one hour
T1 construct: Expression of recombinant full-length PDE2A protein in insect Sf9 cells; GST (N); made in house; host or cells: insect Sf9 cells (baculovirus)
Experimental: Experimental objective: The substituted Alexa Fluor 633 fluorescent dye on the AMP/GMP antibodies was detected by the fluorescence polarization analysis to determine the concentration of AMP/GMP produced in the reaction system, which was used to calculate the IC50 values of the test compounds against PDE2 phosphodiesterase.
The measured buffer solution: 10 mM Tris-HCl, pH 7.5, 5 mM MgCl2, 0.01% Brij 35, 1 mM DTT, and 1% DMSO.
Enzyme: Expression of recombinant full-length PDE2A protein in insect Sf9 cells using N-terminal GST-tag with baculovirus.
Transcreener® AMP^2/GMP^2 antibody, AMP2/GMP2 AlexaFluor 633 fluorescent dye.
The enzyme solution was prepared using freshly prepared buffer solution, and then added to the reaction holes, the DMSO solutions of the test compounds were added by the Echo550 non-contact nanoliter acoustic pipetting system, and then pre-incubated at room temperature for 10 minutes, the reaction was initiated by the addition of the substrate (1 μM cGMP), and then reacted at room temperature for one hour. And then the detection system (Transcreener® AMP^2/GMP^2 antibody, AMP2/GMP2 AlexaFluor 633 fluorescent dye) was added, reacted at room temperature for 90 minutes, the fluorescence polarization was detected using Ex/Em 620/688.
The fluorescence polarization intensity was converted to nM concentration by AMP/GMP standard curve, The relative enzyme activity relative to DMSO blank was calculated, IC50 values and curves were calculated using Prism software packages (GraphPad Software, San Diego Calif., USA).

TNF-α = assay: Effect of compounds on TNF-α in LPS-induced blood of rats in vitro (ELISA); format: cell-based, Sprague Dawley rats; settings: compound 100 μM; LPS-induced rat blood, 5 hours; plasma TNF-α by ELISA; read-out: TNF-α inhibition ratio
Experimental: Experimental objective: Detect the effects of compounds on TNF-α in LPS-induced blood of rats in vitro, evaluate the inhibitory effect of the compounds on TNF-α in LPS-induced blood of rats.
Sprague Dawley rats (male, 210-260 g, 8-10 weeks old, Shanghai Slack);
Rat TNF-alpha Quantikine ELISA Kit (R&D, #SRTA00).
Test compounds solutions with a concentration of 1 mM were prepared, 40 μL of which (the final concentration of the compound was 100 μM) was respectively added to 48-hole cell culture plates. Rats were anesthetized with isoflurane, heart blood was collected (heparin was used to anticoagulation). The blood was added to the 48-hole plates holding the test compounds, 320 μL per hole. The 48-hole plates were placed in a cell incubator and incubated for 30 minutes, 40 μL LPS solution was added (100 μg/mL), mixed and placed in the incubator and continued to incubate. the 48-hole plates was taken out after 5 hours, the blood samples were transferred to 1.5 mL centrifuge tubes, centrifuged in a centrifuge (4,500 rpm, 4° C., 5 minutes), the upper plasma were separated, frozen after storage and stored in a refrigerator at −80° C. The levels of TNF-α in plasma samples were measured using the R & D ELISA kit according to the kit instructions the nest day.

[2] = Pharmacokinetic evaluation of compounds in SD rats; format: in vivo, Sprague Dawley rats; settings: single intravenous injection and oral administration; for bioavailability / clearance / AUC / half-life: male, Sprague-Dawley, rat, plasma; for bioavailability: read-out: Bioavailability F; for clearance: read-out: Clearance rate; for AUC: read-out: Concentration integration AUC; for half-life: read-out: Half-life T1/2 (converted)
Experimental: Experimental objective: The pharmacokinetics of test compounds in SD rats.
Sprague Dawley rats (male, 200-300 g, 7-9 weeks old, Shanghai Slack).
The pharmacokinetic characteristics of rodents after intravenous and oral administration of the compounds were tested according to the standard protocol, in the experiment, the candidate compound was formulated into a clear solution, and the rats were given single intravenous injection and oral administration. Intravenous and oral solvents are a certain proportion of hydroxypropyl βcyclodextrin aqueous solution or physiological saline solution. Blood samples within 24 hours were collected, centrifuged (3000 g) for 15 minutes, the supernatant were separated to obtain the plasma samples, the protein was precipitated by adding a 4 times volume of acetonitrile solution that containing the internal standard, centrifuged and the supernatant was then centrifuged after adding equal volume of water, then the supernatant was injected, the plasma concentration was quantitatively analyzed by LC-MS/MS analysis, and pharmacokinetics parameters such as peak concentration, peak time, clearance rate, half-life, drug area under the curve, bioavailability etc. are calculated.

T1 sequence (O00408 whole entry, species assumed): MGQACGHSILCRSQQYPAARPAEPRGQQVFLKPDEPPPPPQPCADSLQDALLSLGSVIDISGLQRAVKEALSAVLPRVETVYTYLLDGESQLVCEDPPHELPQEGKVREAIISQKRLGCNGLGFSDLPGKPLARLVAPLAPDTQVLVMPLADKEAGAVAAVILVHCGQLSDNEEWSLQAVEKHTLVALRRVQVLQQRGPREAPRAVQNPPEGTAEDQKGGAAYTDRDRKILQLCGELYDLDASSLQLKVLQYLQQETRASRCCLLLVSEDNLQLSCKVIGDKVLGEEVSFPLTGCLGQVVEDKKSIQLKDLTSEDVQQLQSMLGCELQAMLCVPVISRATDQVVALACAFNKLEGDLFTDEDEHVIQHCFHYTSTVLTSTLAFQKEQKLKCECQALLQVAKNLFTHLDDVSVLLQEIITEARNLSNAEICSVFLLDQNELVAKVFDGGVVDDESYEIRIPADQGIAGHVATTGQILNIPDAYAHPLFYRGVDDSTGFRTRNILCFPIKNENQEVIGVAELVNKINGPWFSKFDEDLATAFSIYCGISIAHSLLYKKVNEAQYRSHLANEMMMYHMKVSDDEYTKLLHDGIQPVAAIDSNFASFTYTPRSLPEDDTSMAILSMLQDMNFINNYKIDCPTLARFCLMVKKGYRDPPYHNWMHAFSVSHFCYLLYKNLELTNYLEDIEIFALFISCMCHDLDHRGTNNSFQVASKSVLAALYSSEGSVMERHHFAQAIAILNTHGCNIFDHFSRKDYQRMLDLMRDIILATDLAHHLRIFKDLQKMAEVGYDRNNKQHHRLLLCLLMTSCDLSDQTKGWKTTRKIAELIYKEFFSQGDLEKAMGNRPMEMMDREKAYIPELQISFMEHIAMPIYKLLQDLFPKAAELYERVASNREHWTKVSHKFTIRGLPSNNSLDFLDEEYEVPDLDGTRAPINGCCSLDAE

| SMILES | IC50 [1] [µM] | inhibition at 100 µM (TNF-α) [%] | bioavailability [2] [%] | clearance [2] [L/h/kg] | AUC [2] [µM·h] | half-life [2] [h] | Bioavailability F [2] [%] | Clearance rate [2] [L/h/kg] | Concentration integration AUC [2] [µM·h] | Half-life T1/2 [2] [h] |
| --- | --- | --- | --- | --- | --- | --- | --- | --- | --- | --- |
| Cn1cnc2c1c(=O)n(CC1CCC(O)(C(F)(F)F)CC1)c(=O)n2C (single isomer, unassigned) [Embodiment 12 isomer 1] | 10 to 50 | 60 to 80 |  |  |  |  |  |  |  |  |
| Cn1c(=O)n(CC2CCC(O)(C(F)(F)F)CC2)c(=O)c2c1ncn2CC(F)(F)F (stereo not shown) [Embodiment 44, 1-((4-Hydroxy-4-(trifluoromethyl)cyclohexyl)methyl)-3-methyl-7-(2,2,2-trifluoroethyl)-1H-purine-2,6(3H,7H)-dione] | 1 to 10 | 80 to 100 |  |  |  |  |  |  |  |  |
| C[C@H](O)CNCCn1c(=O)c2c(ncn2C)n(C)c1=O [Embodiment 40, (S)-1-(2-((2-Hydroxypropyl)amino)ethyl)-3,7-dimethyl-1H-purine-2,6(3H,7H)-dione] |  | 60 to 80 |  |  |  |  |  |  |  |  |
| CCC(O)(CC)CCCCn1c(=O)c2c(ncn2C)n(C)c1=O [Embodiment 2, 1-(5-Ethyl-5-hydroxyheptyl)-3,7-dimethyl-1H-purine-2,6(3H,7H)-dione] | 1 to 10 |  | 34.2 | 3.82 | 0.902 | 0.481 |  |  |  |  |
| Cn1c(=O)n(CC2CCC(C)(O)CC2)c(=O)c2c1ncn2CC1CC1 (single isomer, unassigned) [Embodiment 51 isomer 2] | 1 to 10 | 80 to 100 | 47.9 | 3.26 | 4.39 | 0.793 |  |  |  |  |
| Cn1cnc2c1c(=O)n(CC1CCC(O)(C(F)(F)F)CC1)c(=O)n2C (single isomer, unassigned) [Embodiment 12 isomer 2] | 1 to 10 |  | 34.1 | 2.46 | 3.85 | 1.6 |  |  |  |  |
| CC(C)Cn1cnc2c1c(=O)n(CC1CCC(O)(C(F)(F)F)CC1)c(=O)n2C (single isomer, unassigned) [Embodiment 58 isomer 2, 1-((4-Hydroxy-4-(trifluoromethyl)cyclohexyl)methyl)-7-isobutyl-3-methyl-1H-purine-2,6(3H,7H)-dione] |  |  | 42.6 | 4.3 | 2.49 | 0.56 |  |  |  |  |
| Cn1cnc2c1c(=O)n(Cc1ccc(C(C)(O)C(F)(F)F)cc1)c(=O)n2C (stereo not shown) [Embodiment 27] | 1 to 10 | 60 to 80 | 33.8 | 0.816 | 11.4 | 2.96 |  |  |  |  |
| Cn1c(=O)n(Cc2ccc(C(C)(O)C(F)(F)F)nc2)c(=O)c2c1ncn2CC1CC1 (stereo not shown) [Embodiment 55, 7-(Cyclopropylmethyl)-3-methyl-1-((6-(1,1,1-trifluoro-2-hydroxypropan-2-yl)pyridin-3-yl)methyl)-1H-purine-2,6-(3H,7H)-dione] | < 1 | 80 to 100 | 95.8 | 1.29 | 17.8 | 2.18 |  |  |  |  |
| Cn1c(=O)n(CC2CCC(O)(C(F)(F)F)CC2)c(=O)c2c1ncn2CC(F)(F)F (single isomer, unassigned) [Embodiment 45 isomer 2, 1-((4-Hydroxy-4-(trifluoromethyl)cyclohexyl)methyl)-3-methyl-7-(2,2,2-trifluoroethyl)-1H-purine-2,6(3H,7H)-dione] | 1 to 10 |  | 17.1 | 3.5 | 1.29 | 6.19 |  |  |  |  |
| Cn1c(=O)n(CC2CCC(O)(C(F)(F)F)CC2)c(=O)c2c1ncn2CC1CC1 (stereo not shown) [Embodiment 49, 7-(Cyclopropylmethyl)-1-((4-hydroxy-4-(trifluoromethyl)cyclohexyl)methyl)-3-methyl-1H-purine-2,6(3H,7H)-dione] | 1 to 10 | 80 to 100 |  |  |  |  |  |  |  |  |
| Cn1cnc2c1c(=O)n(Cc1ccc(C(C)(O)C(F)(F)F)nc1)c(=O)n2C (stereo not shown) [Embodiment 28] | 1 to 10 |  | 149 | 0.774 | 51.2 | 2.27 |  |  |  |  |
| Cn1cnc2c1c(=O)n(CC1CCC(O)(C(F)(F)F)CC1)c(=O)n2C (stereo not shown) [Embodiment 11, 1-((4-Hydroxy-4-(trifluoromethyl)cyclohexyl)methyl)-3,7-dimethyl-1H-purine-2,6(3H, 7H)-dione] | 10 to 50 | 60 to 80 |  |  |  |  |  |  |  |  |
| Cn1cnc2c1c(=O)n(C[C@H]1CC[C@](O)(C(F)(F)F)CC1)c(=O)n2C [Embodiment 12, 1-(((1S,4S)-4-Hydroxy-4-(trifluoromethyl)cyclohexyl)methyl)-3,7-dimethyl-1H-purine-2,6(3H,7H)-dione] |  |  |  |  |  |  | 41.2 | 1.96 | 5.863 | 3.12 |
| Cn1cnc2c1c(=O)n(CCCCC(C)(O)C(F)(F)F)c(=O)n2C (stereo not shown) [Embodiment 1, 3,7-Dimethyl-1-(6,6,6-trifluoro-5-hydroxy-5-methylhexyl)-1H-purine-2,6(3H,7H)-dione] | 10 to 50 | 60 to 80 | 59.7 | 3.28 | 1.91 | 0.659 |  |  |  |  |
| Cn1c(=O)n(CC2CCC(O)(C(F)(F)F)CC2)c(=O)c2c1ncn2CC1CC1 (single isomer, unassigned) [Embodiment 50 isomer 2, 7-(Cyclopropylmethyl)-1-((4-hydroxy-4-(trifluoromethyl)cyclohexyl)methyl)-3-methyl-1H-purine-2,6(3H,7H)-dione] | < 1 | 80 to 100 | 42.6 | 4.3 | 2.49 | 0.56 |  |  |  |  |
